The source of these data is ChEMBL document CHEMBL5291721, “A preclinical secondary pharmacology resource illuminates target-adverse drug reaction associations of marketed drugs” (Nat Commun, 2023).

Where only a bound is given, the exact number is not on record here.

Experiment [1] has as its target T1, Alpha-2A adrenergic receptor (Homo sapiens, UniProt P08913).
T1 sequence (P08913 whole entry): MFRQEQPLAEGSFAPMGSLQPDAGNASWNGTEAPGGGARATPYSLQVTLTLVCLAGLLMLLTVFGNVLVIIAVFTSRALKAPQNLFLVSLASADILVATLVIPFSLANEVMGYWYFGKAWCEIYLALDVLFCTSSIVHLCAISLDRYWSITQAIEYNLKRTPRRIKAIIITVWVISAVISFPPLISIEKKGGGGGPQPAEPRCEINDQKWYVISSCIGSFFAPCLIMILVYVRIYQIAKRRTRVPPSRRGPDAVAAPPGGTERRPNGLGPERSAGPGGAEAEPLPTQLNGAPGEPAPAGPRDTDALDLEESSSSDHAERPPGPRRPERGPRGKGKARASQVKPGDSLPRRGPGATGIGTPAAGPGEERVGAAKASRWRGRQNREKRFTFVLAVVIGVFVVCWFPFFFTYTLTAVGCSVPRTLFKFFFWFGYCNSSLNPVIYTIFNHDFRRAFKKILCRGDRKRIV
The format is functional, cell-based.

For experiment [2], the target named is T2, B2 bradykinin receptor (Homo sapiens, UniProt P30411).
T2 sequence (P30411 whole entry): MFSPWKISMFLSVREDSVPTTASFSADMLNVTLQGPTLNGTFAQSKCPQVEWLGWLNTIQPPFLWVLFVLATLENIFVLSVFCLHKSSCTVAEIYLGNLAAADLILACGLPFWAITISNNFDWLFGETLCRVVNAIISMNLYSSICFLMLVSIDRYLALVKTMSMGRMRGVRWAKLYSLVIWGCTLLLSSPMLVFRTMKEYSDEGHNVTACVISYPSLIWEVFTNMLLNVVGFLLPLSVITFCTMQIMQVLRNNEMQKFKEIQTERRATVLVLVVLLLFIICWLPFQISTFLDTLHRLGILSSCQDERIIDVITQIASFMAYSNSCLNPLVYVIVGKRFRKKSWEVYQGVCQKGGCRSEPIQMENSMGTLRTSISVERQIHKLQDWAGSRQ

Experiment [3] deals with Cannabinoid receptor 1 (Homo sapiens, UniProt P21554).
The target of experiment [4] is T3, Gastric inhibitory polypeptide receptor (Homo sapiens, UniProt P48546).
T3 sequence (P48546 whole entry): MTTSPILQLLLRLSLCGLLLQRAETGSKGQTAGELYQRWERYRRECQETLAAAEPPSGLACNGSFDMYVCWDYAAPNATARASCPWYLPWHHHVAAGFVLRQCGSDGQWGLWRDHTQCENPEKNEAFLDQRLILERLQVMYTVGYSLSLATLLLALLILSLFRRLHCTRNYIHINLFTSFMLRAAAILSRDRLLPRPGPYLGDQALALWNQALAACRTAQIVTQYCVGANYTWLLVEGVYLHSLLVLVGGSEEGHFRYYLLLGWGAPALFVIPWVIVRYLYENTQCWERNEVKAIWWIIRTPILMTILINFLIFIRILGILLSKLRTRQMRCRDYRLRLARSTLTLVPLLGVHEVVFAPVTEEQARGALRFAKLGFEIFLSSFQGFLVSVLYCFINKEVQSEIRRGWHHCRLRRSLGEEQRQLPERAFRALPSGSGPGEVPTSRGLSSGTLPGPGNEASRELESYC

In experiment [5] the target is T4, 5-hydroxytryptamine receptor 2B (Homo sapiens, UniProt P41595). Type of experiment: functional, cell-based.
The target of experiment [6] is T4, 5-hydroxytryptamine receptor 2B.
Experiment [7] has as its target T5, Neuropeptide Y receptor type 2 (Homo sapiens, UniProt P49146).
T5 sequence (P49146 whole entry): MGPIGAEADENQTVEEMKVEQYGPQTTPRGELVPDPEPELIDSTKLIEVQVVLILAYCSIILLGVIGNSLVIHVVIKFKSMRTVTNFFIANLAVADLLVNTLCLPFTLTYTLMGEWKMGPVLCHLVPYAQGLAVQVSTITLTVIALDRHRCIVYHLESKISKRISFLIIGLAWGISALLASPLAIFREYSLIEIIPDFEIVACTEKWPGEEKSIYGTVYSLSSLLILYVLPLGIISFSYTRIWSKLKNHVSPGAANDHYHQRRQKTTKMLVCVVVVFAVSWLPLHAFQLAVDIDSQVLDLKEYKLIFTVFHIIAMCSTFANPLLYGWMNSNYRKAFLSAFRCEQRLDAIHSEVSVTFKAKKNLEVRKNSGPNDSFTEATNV

In experiment [8] the target is Neurotensin receptor type 1 (Homo sapiens, UniProt P30989).
In experiment [9] the target is Sodium-dependent serotonin transporter (Homo sapiens, UniProt P31645).
In experiment [10] the target is T6, Amine oxidase [flavin-containing] A (Homo sapiens, UniProt P21397).
T6 sequence (P21397 whole entry): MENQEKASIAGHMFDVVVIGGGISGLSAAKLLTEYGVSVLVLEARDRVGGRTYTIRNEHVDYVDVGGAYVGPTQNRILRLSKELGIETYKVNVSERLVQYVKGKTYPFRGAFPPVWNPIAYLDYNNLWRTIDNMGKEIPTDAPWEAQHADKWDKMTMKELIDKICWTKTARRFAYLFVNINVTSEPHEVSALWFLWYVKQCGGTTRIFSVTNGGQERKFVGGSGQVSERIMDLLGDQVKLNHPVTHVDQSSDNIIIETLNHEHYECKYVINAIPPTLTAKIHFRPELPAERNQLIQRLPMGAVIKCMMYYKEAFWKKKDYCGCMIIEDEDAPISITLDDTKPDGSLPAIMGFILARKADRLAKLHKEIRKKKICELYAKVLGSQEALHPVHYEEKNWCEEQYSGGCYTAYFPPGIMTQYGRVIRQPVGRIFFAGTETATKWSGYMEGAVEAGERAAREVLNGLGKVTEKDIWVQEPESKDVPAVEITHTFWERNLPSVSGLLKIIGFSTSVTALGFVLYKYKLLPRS
Type of experiment: functional.

Experiment [11] deals with D(1A) dopamine receptor (Homo sapiens, UniProt P21728).
Also: assay procedure not described here.

T4 sequence (P41595 whole entry): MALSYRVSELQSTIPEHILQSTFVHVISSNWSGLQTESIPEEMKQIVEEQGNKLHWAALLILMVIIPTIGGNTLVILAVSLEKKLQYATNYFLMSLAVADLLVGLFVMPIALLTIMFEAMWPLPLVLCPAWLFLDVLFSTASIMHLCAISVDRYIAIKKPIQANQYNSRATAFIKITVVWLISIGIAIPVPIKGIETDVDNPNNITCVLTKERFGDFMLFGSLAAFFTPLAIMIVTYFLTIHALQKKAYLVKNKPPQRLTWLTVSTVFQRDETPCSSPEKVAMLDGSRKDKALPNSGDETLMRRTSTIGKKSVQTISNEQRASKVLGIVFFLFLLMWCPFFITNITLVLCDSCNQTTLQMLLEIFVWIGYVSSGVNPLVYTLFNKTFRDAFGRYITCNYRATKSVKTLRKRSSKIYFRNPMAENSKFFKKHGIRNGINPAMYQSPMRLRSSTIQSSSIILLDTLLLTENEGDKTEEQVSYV
Sequence of Neurotensin receptor type 1 (P30989 whole entry): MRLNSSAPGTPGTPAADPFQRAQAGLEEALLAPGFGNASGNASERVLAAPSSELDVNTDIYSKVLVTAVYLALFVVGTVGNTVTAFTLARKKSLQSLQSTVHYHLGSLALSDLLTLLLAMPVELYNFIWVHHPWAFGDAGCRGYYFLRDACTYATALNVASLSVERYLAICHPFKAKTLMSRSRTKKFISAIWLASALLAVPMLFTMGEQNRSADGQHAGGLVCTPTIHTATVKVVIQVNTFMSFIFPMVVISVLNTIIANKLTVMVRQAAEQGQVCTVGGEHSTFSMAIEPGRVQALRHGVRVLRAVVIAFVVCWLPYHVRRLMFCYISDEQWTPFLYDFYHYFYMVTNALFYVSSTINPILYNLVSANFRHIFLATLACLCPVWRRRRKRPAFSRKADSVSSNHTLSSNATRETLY
Sequence of D(1A) dopamine receptor (P21728 whole entry): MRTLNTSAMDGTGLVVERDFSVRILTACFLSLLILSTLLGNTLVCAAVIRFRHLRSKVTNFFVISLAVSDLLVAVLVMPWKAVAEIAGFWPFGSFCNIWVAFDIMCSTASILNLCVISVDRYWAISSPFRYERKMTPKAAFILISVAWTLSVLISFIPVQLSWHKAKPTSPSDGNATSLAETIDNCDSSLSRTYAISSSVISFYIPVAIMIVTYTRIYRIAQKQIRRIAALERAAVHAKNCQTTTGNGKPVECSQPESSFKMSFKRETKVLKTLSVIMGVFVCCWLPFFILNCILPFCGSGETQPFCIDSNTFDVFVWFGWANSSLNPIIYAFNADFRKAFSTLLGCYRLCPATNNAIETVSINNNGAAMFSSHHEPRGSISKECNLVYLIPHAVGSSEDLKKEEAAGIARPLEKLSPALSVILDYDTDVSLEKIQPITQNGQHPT
Sequence of Sodium-dependent serotonin transporter (P31645 whole entry): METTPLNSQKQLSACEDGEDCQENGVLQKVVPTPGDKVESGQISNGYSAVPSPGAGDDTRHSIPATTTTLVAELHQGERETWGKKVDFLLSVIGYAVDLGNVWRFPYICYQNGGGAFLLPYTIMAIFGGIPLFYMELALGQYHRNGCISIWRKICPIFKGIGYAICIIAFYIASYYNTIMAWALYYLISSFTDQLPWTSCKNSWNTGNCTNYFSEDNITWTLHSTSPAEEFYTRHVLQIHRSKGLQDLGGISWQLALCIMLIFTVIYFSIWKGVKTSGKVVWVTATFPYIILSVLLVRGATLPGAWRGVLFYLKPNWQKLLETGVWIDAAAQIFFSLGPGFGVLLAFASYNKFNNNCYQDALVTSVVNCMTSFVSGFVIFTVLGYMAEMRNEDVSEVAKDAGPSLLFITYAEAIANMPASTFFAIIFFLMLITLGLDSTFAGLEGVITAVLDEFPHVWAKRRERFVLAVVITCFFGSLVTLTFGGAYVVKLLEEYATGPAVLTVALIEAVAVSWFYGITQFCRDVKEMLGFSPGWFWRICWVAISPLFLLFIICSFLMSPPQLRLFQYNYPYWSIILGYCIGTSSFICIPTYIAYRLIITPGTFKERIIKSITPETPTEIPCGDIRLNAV
Sequence of Cannabinoid receptor 1 (P21554 whole entry): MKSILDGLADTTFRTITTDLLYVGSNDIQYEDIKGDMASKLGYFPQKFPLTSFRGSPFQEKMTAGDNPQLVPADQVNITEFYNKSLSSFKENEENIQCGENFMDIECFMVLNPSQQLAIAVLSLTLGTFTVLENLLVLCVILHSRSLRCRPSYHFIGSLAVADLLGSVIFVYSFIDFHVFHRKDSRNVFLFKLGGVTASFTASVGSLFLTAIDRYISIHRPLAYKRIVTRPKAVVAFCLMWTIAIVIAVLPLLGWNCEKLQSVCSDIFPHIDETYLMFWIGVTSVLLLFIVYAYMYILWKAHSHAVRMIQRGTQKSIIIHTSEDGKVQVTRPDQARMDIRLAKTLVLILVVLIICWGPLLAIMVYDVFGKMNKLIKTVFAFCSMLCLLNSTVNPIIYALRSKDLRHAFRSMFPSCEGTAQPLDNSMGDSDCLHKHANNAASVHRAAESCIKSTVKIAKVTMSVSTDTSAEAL

Take `COc1ccc(C(=O)Nc2ccccc2CCC2CCCCN2C)cc1` (stereo unspecified) [ENCAINIDE]: the AC50 was more than 10 µM in experiment [1]; more than 30 µM in experiment [2]; more than 10 µM in experiment [3]; more than 30 µM in [4]; more than 10 µM in experiment [5]; 3.66 µM in experiment [6]. Further, the AC50 in [7] was more than 30 µM; in [8], more than 30 µM; in [9] it was more than 10 µM; in [10] it was more than 10 µM; in [11] it was more than 10 µM.
